Experimental data reported in ChEMBL document CHEMBL1201861, “Genomics of Drug Sensitity in Cancer screening data, Wellcome Trust Sanger Institute”.

Experiments:
Assay in all cases: cells
COLO-668 = format: functional, cell-based, Homo sapiens; settings: Homo sapiens, COLO-668
Description: SANGER: Inhibition of human COLO-668 cell growth in a cell viability assay.

TGBC11TKB = format: functional, cell-based; settings: Homo sapiens;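 also: growth inhibition of human TGBC11TKB cells, measured by a cell viability assay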
Description: SANGER: Inhibition of human TGBC11TKB cell growth in a cell viability assay.

CFPAC-1 = format: functional, cell-based; settings: Homo sapiens;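 also: cell viability readout used to gauge suppression of CFPAC-1 cell proliferation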
Description: SANGER: Inhibition of human CFPAC-1 cell growth in a cell viability assay.

SCC-4 = format: functional, cell-based, Homo sapiens; settings: Homo sapiens, SCC-4;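 also: growth inhibition of human SCC-4 cells, read out as cell viability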
Description: SANGER: Inhibition of human SCC-4 cell growth in a cell viability assay.

D-263MG = format: functional, cell-based, Homo sapiens; settings: Homo sapiens, D-263MG
Description: SANGER: Inhibition of human D-263MG cell growth in a cell viability assay.

GCIY = format: functional, cell-based, Homo sapiens; settings: Homo sapiens, GCIY;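 also: growth inhibition of the human GCIY cell line, read out by a cell viability assay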
Description: SANGER: Inhibition of human GCIY cell growth in a cell viability assay.

23132-87 = format: functional, cell-based, Homo sapiens; settings: Homo sapiens
Description: SANGER: Inhibition of human 23132-87 cell growth in a cell viability assay.

EPLC-272H = format: functional, cell-based; settings: Homo sapiens
Description: SANGER: Inhibition of human EPLC-272H cell growth in a cell viability assay.

NCI-H522 = format: functional, cell-based, Homo sapiens; settings: Homo sapiens, NCI-H522;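 also: cell viability assay measuring growth inhibition of human NCI-H522 cells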
Description: SANGER: Inhibition of human NCI-H522 cell growth in a cell viability assay.

H-EMC-SS = format: functional, cell-based; settings: Homo sapiens
Description: SANGER: Inhibition of human H-EMC-SS cell growth in a cell viability assay.

ABC-1 = format: functional, cell-based, Homo sapiens; settings: Homo sapiens, ABC-1;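 also: growth inhibition of human ABC-1 cells, read out by a cell viability assay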
Description: SANGER: Inhibition of human ABC-1 cell growth in a cell viability assay.

HCC1187 = format: functional, cell-based, Homo sapiens; settings: Homo sapiens, HCC1187;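 also: growth inhibition of HCC1187 cells, read out with a cell viability assay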
Description: SANGER: Inhibition of human HCC1187 cell growth in a cell viability assay.

ECC10 = format: functional, cell-based; settings: Homo sapiens;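 also: growth inhibition of ECC10 cells, read out by a cell viability assay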
Description: SANGER: Inhibition of human ECC10 cell growth in a cell viability assay.

SBC-5 = format: functional, cell-based, Homo sapiens; settings: Homo sapiens, SBC-5;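 also: cell viability assay read-out, IC50 is the concentration that inhibits growth of the cells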
Description: SANGER: Inhibition of human SBC-5 cell growth in a cell viability assay.

L-428 = format: functional, cell-based; settings: Homo sapiens
Description: SANGER: Inhibition of human L-428 cell growth in a cell viability assay.

NBsusSR = format: functional, cell-based; settings: Homo sapiens;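 also: growth inhibition of the human cell line, read out with a cell viability assay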
Description: SANGER: Inhibition of human NBsusSR cell growth in a cell viability assay.

SNU-387 = format: functional, cell-based, Homo sapiens; settings: Homo sapiens, SNU-387
Description: SANGER: Inhibition of human SNU-387 cell growth in a cell viability assay.

SW872 = format: functional, cell-based, Homo sapiens; settings: Homo sapiens, SW872;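 also: growth inhibition of SW872 cells, read out by a viability assay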
Description: SANGER: Inhibition of human SW872 cell growth in a cell viability assay.

RPMI-2650 = format: functional, cell-based, Homo sapiens; settings: Homo sapiens, RPMI-2650
Description: SANGER: Inhibition of human RPMI-2650 cell growth in a cell viability assay.

EM-2 = format: functional, cell-based; settings: Homo sapiens;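 also: growth inhibition of EM-2 cells, read out with a cell viability assay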
Description: SANGER: Inhibition of human EM-2 cell growth in a cell viability assay.

NCI-H2342 = format: functional, cell-based; settings: Homo sapiens;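 also: growth inhibition of the cancer cell line, determined with a cell viability assay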
Description: SANGER: Inhibition of human NCI-H2342 cell growth in a cell viability assay.

KNS-62 = format: functional, cell-based; settings: Homo sapiens;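 also: inhibition of cell growth, read out with a cell viability assay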
Description: SANGER: Inhibition of human KNS-62 cell growth in a cell viability assay.

LB996-RCC = format: functional, cell-based; settings: Homo sapiens
Description: SANGER: Inhibition of human LB996-RCC cell growth in a cell viability assay.

HSC-3 = format: functional, cell-based, Homo sapiens; settings: Homo sapiens, HSC-3
Description: SANGER: Inhibition of human HSC-3 cell growth in a cell viability assay.

IGR-1 = format: functional, cell-based, Homo sapiens; settings: Homo sapiens, IGR-1;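 also: growth inhibition of human IGR-1 cells, read out with a cell viability assay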
Description: SANGER: Inhibition of human IGR-1 cell growth in a cell viability assay.

8-MG-BA = format: functional, cell-based, Homo sapiens; settings: Homo sapiens, 8-MG-BA;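 also: growth inhibition of 8-MG-BA cells, read out with a cell viability assay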
Description: SANGER: Inhibition of human 8-MG-BA cell growth in a cell viability assay.

NCI-H1573 = format: functional, cell-based; settings: Homo sapiens;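 also: growth inhibition of NCI-H1573 cells, read out with a cell viability assay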
Description: SANGER: Inhibition of human NCI-H1573 cell growth in a cell viability assay.

FaDu = format: functional, cell-based, Homo sapiens; settings: Homo sapiens, FaDu;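 also: cell viability readout of growth inhibition in FaDu cells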
Description: SANGER: Inhibition of human FADU cell growth in a cell viability assay.

NCI-H1666 = format: functional, cell-based; settings: Homo sapiens;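 also: growth inhibition of the cell line, read out with a cell viability assay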
Description: SANGER: Inhibition of human NCI-H1666 cell growth in a cell viability assay.

EFO-21 = format: functional, cell-based, Homo sapiens; settings: Homo sapiens, EFO-21;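 also: growth inhibition of EFO-21 cells measured with a viability assay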
Description: SANGER: Inhibition of human EFO-21 cell growth in a cell viability assay.

COLO-684 = format: functional, cell-based; settings: Homo sapiens
Description: SANGER: Inhibition of human COLO-684 cell growth in a cell viability assay.

EC-GI-10 = format: functional, cell-based, Homo sapiens; settings: Homo sapiens, EC-GI-10
Description: SANGER: Inhibition of human EC-GI-10 cell growth in a cell viability assay.

| Structure (SMILES) | IC50 (COLO-668) | IC50 (TGBC11TKB) | IC50 (CFPAC-1) | IC50 (SCC-4) | IC50 (D-263MG) | IC50 (GCIY) | IC50 (EPLC-272H) | IC50 (H-EMC-SS) | IC50 (ABC-1) | IC50 (HCC1187) | IC50 (ECC10) | IC50 (SBC-5) | IC50 (L-428) | IC50 (NBsusSR) | IC50 (SNU-387) | IC50 (SW872) | IC50 (RPMI-2650) | IC50 (EM-2) | IC50 (NCI-H2342) | IC50 (KNS-62) | further results |
| --- | --- | --- | --- | --- | --- | --- | --- | --- | --- | --- | --- | --- | --- | --- | --- | --- | --- | --- | --- | --- | --- |
| CCOc1nc(NC(=O)Cc2cc(OC)ccc2OC)cc(N)c1C#N | > 10000 nM | > 10000 nM | > 10000 nM | > 10000 nM | > 10000 nM | > 10000 nM | > 10000 nM | > 10000 nM | > 10000 nM | > 10000 nM | > 10000 nM | > 10000 nM | > 10000 nM | > 10000 nM | > 10000 nM | > 10000 nM | > 10000 nM | > 10000 nM | > 10000 nM | > 10000 nM | IC50 (23132-87): > 10000 nM; IC50 (NCI-H522): > 10000 nM; IC50 (LB996-RCC): > 10000 nM; IC50 (HSC-3): > 10000 nM; IC50 (IGR-1): > 10000 nM; IC50 (8-MG-BA): > 10000 nM; IC50 (NCI-H1573): > 10000 nM; IC50 (FaDu): > 10000 nM; IC50 (NCI-H1666): > 10000 nM; IC50 (EFO-21): > 10000 nM; IC50 (COLO-684): > 10000 nM |
| CC(=O)O[C@@H]1[C@@H](OC(C)=O)[C@@H](O)[C@H](Oc2c(-c3ccc(O)cc3)oc3cc(O)cc(O)c3c2=O)O[C@H]1C | > 10000 nM | > 10000 nM | > 10000 nM | > 10000 nM | > 10000 nM | > 10000 nM | > 10000 nM | > 10000 nM | > 10000 nM | > 10000 nM | > 10000 nM | > 10000 nM | > 10000 nM | > 10000 nM | > 10000 nM | > 10000 nM | > 10000 nM | > 10000 nM | > 10000 nM | > 10000 nM | IC50 (23132-87): > 10000 nM; IC50 (NCI-H522): > 10000 nM; IC50 (LB996-RCC): > 10000 nM; IC50 (HSC-3): > 10000 nM; IC50 (IGR-1): > 10000 nM; IC50 (8-MG-BA): > 10000 nM; IC50 (NCI-H1573): > 10000 nM; IC50 (FaDu): > 10000 nM; IC50 (NCI-H1666): > 10000 nM; IC50 (EFO-21): > 10000 nM; IC50 (COLO-684): > 10000 nM |
| COc1cc(F)c(F)c(Nc2ccc(I)cc2F)c1NS(=O)(=O)C1(CC(O)CO)CC1 (stereo not drawn) | > 5000 nM | > 5000 nM | > 5000 nM | 5000 nM | 431 nM | 1180 nM | 185 nM | 917 nM | > 5000 nM | > 5000 nM | 1390 nM | > 5000 nM | > 5000 nM | > 5000 nM | 2420 nM | 774 nM | > 5000 nM | > 5000 nM | > 5000 nM | 1870 nM | IC50 (NCI-H522): > 5000 nM; IC50 (LB996-RCC): > 5000 nM; IC50 (HSC-3): 307 nM; IC50 (IGR-1): > 5000 nM; IC50 (8-MG-BA): > 5000 nM; IC50 (NCI-H1573): > 5000 nM; IC50 (FaDu): > 5000 nM; IC50 (NCI-H1666): 889 nM; IC50 (EFO-21): > 5000 nM; IC50 (COLO-684): > 5000 nM |
| O=C1N=C(NCc2cccs2)S/C1=C\c1ccc2ncccc2c1 | > 5000 nM | > 5000 nM | > 5000 nM | > 5000 nM | > 5000 nM | > 5000 nM | > 5000 nM | > 5000 nM | > 5000 nM | > 5000 nM | > 5000 nM | > 5000 nM | > 5000 nM | > 5000 nM | > 5000 nM | > 5000 nM | > 5000 nM | > 5000 nM | > 5000 nM | > 5000 nM | IC50 (NCI-H522): > 5000 nM; IC50 (LB996-RCC): > 5000 nM; IC50 (HSC-3): > 5000 nM; IC50 (IGR-1): > 5000 nM; IC50 (8-MG-BA): 3140 nM; IC50 (NCI-H1573): > 5000 nM; IC50 (FaDu): > 5000 nM; IC50 (NCI-H1666): > 5000 nM; IC50 (EFO-21): > 5000 nM; IC50 (COLO-684): > 5000 nM |
| COc1ccc(-c2ccc3c(N4CCOC[C@@H]4C)nc(N4CCOC[C@@H]4C)nc3n2)cc1CO [AZD-8055] | > 2000 nM | > 2000 nM | > 2000 nM | 585 nM | 1330 nM | 458 nM | 431 nM | > 2000 nM | > 2000 nM | > 2000 nM | 350 nM | 1550 nM | > 2000 nM | 170 nM | 1520 nM | 1390 nM | 1680 nM | 342 nM | > 2000 nM | 506 nM | IC50 (NCI-H522): 630 nM; IC50 (LB996-RCC): > 2000 nM; IC50 (HSC-3): 429 nM; IC50 (IGR-1): > 2000 nM; IC50 (8-MG-BA): 1980 nM; IC50 (NCI-H1573): 902 nM; IC50 (FaDu): > 2000 nM; IC50 (NCI-H1666): > 2000 nM; IC50 (EFO-21): > 2000 nM; IC50 (COLO-684): 457 nM |
| Nc1ccn([C@@H]2O[C@H](CO)[C@@H](O)[C@@H]2O)c(=O)n1 [CYTARABINE] | 809 nM | 1730 nM | 1060 nM | 965 nM | 1170 nM | > 2000 nM | 1450 nM | 145 nM | 1520 nM | > 2000 nM | > 2000 nM | > 2000 nM | > 2000 nM | 335 nM | 289 nM | > 2000 nM | 401 nM | 211 nM | > 2000 nM | > 2000 nM | IC50 (23132-87): 319 nM; IC50 (EC-GI-10): 557 nM; IC50 (HSC-3): 400 nM; IC50 (IGR-1): 1780 nM; IC50 (8-MG-BA): 341 nM; IC50 (NCI-H1573): > 2000 nM; IC50 (FaDu): > 2000 nM; IC50 (NCI-H1666): 1580 nM; IC50 (EFO-21): 1550 nM; IC50 (COLO-684): > 2000 nM |
| COc1ccc(C2=N[C@@H](c3ccc(Cl)cc3)[C@@H](c3ccc(Cl)cc3)N2C(=O)N2CCNC(=O)C2)c(OC(C)C)c1 [NUTLIN-3] | > 8000 nM | > 8000 nM | > 8000 nM | > 8000 nM | > 8000 nM | > 8000 nM | > 8000 nM | 6390 nM | > 8000 nM | > 8000 nM | > 8000 nM | > 8000 nM | > 8000 nM | > 8000 nM | > 8000 nM | > 8000 nM | 7940 nM | > 8000 nM | > 8000 nM | > 8000 nM | IC50 (NCI-H522): > 8000 nM; IC50 (LB996-RCC): 3630 nM; IC50 (HSC-3): > 8000 nM; IC50 (IGR-1): > 8000 nM; IC50 (8-MG-BA): > 8000 nM; IC50 (NCI-H1573): > 8000 nM; IC50 (FaDu): > 8000 nM; IC50 (NCI-H1666): > 8000 nM; IC50 (EFO-21): > 8000 nM; IC50 (COLO-684): > 8000 nM |
| C=CCNC1=C2C[C@@H](C)C[C@H](OC)[C@H](O)[C@@H](C)/C=C(\C)[C@H](OC(N)=O)[C@@H](OC)/C=C\C=C(/C)C(=O)NC(=CC1=O)C2=O [TANESPIMYCIN] | > 1000 nM | 109 nM | 375 nM | 178 nM | 27.9 nM | 918 nM | 62 nM | > 1000 nM | > 1000 nM | > 1000 nM | > 1000 nM | 201 nM | > 1000 nM | 373 nM | > 1000 nM | 608 nM | > 1000 nM | > 1000 nM | > 1000 nM | 321 nM | IC50 (23132-87): 69.5 nM; IC50 (NCI-H522): 878 nM; IC50 (LB996-RCC): 336 nM; IC50 (HSC-3): 9.29 nM; IC50 (IGR-1): 790 nM; IC50 (8-MG-BA): 94.7 nM; IC50 (NCI-H1573): 456 nM; IC50 (FaDu): 2.09 nM; IC50 (NCI-H1666): 128 nM; IC50 (EFO-21): > 1000 nM; IC50 (COLO-684): 345 nM |
